Data taken from publication PMC11833736 (ACS Pharmacology & Translational Science, 2025).
Values joined by “and” are separate entries in the source; they are usually repeats but may differ in a detail not shown here. Equal entries are not always repeated.

Key:
[1] = target: AChE (Electrophorus electricus, UniProt O42275); conditions: for PI: AChE, IC50 dark / IC50 green light; for IC50: read-out: IC50,D, isolated AChE, 30 min in the dark, read 35 min after DTNB addition
Excerpt: Among all enzymes involved in transmembrane signaling, another important one is AChE. In a modified procedure (for further details, see the Experimental Section), we checked whether the ruthenium complexes were able to inhibit AChE in the dark and after light activation. The colorimetric assay used Ellman’s reagent. […] The conversion of 5,5′-dithiobis(2-nitrobenzoic acid) (DTNB) to yellow 2-nitro-5-thiobenzoate (TNB) initiated by the addition of acetylthiocholine was then detected by UV–vis spectroscopy every 5 min for a total time of […]. […] The solution was further diluted 1:50 in 50 mM Tris buffer, pH = 8 (10 μL in 490 μL), and then placed in 4.5 mL of 50 mM Tris buffer, pH = 8. […] 50 μL of the enzyme and 50 μL of the complex solution were added to a 96-well plate in triplicates. […] Meanwhile, a 10 mM solution of acetylthiocholine iodide and 10 mM DTNB was prepared. After the respective time, in each well, 5 μL of the acetylthiocholine iodide and DTNB mixture was added. The absorbance was read at a microplate Tecan reader at 410 nm every 5 min for in total 40 min.

[2] = tested on: U-87MG cells; assay: Ru cellular uptake by ICP-MS; assay type: in vitro ADME; conditions: 10 μM; for Ru cellular uptake: dark
Excerpt: The cellular accumulation of Ru^2+ can provide additional information about how differences in anticancer efficacy may relate to the amount of the Ru prodrug in the cell before light activation. For instance, low uptake often leads to limited cytotoxicity due to limited access to the drug target. […] Similar results have been observed in A549 lung cancer cells previously.[56] […] For unknown reasons, it appears that the amine bridge in the i-diqa ligand facilitates the uptake of ruthenium compound [3](PF6)2.
Materials: 65% nitric acid (Suprapur, Merck) was used in the sample digestion process, while diluted 1% nitric acid (v/v) was employed as a carrying solution throughout the ICP measurements. For preparation of calibration and internal standards, National Institute of Standards and Technology (NIST)-traceable 1000 mg/L elemental standards were used (TraceCERT, Fluka). Approximately 18 MΩ cm^–1 water (Milli-Q) was employed in all sample preparation and analysis steps.
Instrumentation: Calibration standards were prepared in a Secuflow fume hood (SCALA) to prevent contamination by atmospheric particulates. The standard samples and measurement samples were analyzed for trace elements using the NexION 2000 (PerkinElmer) ICP-MS instrument equipped with a concentric glass nebulizer and a Peltier-cooled glass spray chamber. An SC2 DX autosampler (PerkinElmer) was connected to ICP-MS for sample introduction. Syngistix software for ICP-MS (v.2.5, PerkinElmer) was used for all data recording and processing. Five trace elemental calibration standards for ICP-MS analysis were prepared using NIST-traceable 1000 mg/L Ru standards: 0, 1, 5, 20, and 100 μg/L. Samples were analyzed without dilution in the original delivery containers to minimize the possibility of contamination. Here, 10 μg/L Rh and In were used as internal standards. To check the calibration, samples were analyzed with a blank measurement and a repeat measurement with one of the calibration standards.
Sample preparation: 1 mL of U-87MG cells were seeded in 12-well plates (Greiner, No. 665180; 400.000 cells per well). […] Afterward, the cells were trypsined, collected, and centrifuged. The resulting cell pellet was dissolved in 1 mL of PBS and counted via a BioRad TC20 automated cell counter. Afterward, the solution was centrifuged and washed again with PBS with subsequent centrifuging. This washing step was repeated twice. The resulting cell pellet was digested in 0.5 mL of 65% HNO3 overnight in a hot oven (90 °C). The solution was diluted with Milli-Q water to 10 mL, and the Ru content [ppb] was measured by ICP-MS.

[3] = cited from earlier work
[4] = tested on: U-87MG glioblastoma cells; assay: Cytotoxicity, SRB end-point assay, dark or green light; conditions: read-out: EC50,D, kept in the dark, 24 h + 48 h incubation, normoxic (21% O2)

Sequence of AChE (O42275 24-633): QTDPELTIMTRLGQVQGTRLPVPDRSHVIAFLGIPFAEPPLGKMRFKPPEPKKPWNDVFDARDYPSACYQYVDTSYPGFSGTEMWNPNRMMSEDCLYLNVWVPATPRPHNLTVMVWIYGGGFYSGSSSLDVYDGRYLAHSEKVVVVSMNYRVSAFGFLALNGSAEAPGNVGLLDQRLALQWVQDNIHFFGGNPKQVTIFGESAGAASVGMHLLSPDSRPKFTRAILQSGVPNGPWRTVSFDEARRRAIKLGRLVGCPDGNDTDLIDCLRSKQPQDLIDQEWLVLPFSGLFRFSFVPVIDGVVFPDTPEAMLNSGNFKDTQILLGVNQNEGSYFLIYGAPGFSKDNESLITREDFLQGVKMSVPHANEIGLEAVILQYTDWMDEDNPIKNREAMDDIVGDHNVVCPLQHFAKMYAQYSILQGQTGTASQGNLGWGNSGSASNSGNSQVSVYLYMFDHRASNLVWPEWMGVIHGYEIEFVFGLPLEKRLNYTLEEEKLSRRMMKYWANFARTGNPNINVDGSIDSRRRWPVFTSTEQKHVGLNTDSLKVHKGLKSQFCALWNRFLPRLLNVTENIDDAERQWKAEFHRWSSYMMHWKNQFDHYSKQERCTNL

Structure (SMILES) | PI [1] | IC50 [1] [µM] | Uptake in % ([2]; 6 h) | Ru cellular uptake ([2]; 6 h incubation) | Uptake in % ([2]; 24 h) [%] | Ru cellular uptake ([2]; 24 h incubation) | LogP [3] | EC50 [4]
CSCCO.F[P-](F)(F)(F)(F)F.F[P-](F)(F)(F)(F)F.[Ru+2].c1ccc(-c2cccc(-c3ccccn3)n2)nc1.c1ccc2cc(-c3cc4ccccc4cn3)ncc2c1 [[2](PF6)2] | >1.5 | > 15 | 0.8% and 0.82% | 0.5 ng Ru/mio. cells and 0.54 ± 0.08 ng Ru/mio. cells | 1.5 | 0.82 ± 0.09 ng Ru/mio. cells | 3.08 | 19 µM and 19.4 µM
CSCCO.F[P-](F)(F)(F)(F)F.F[P-](F)(F)(F)(F)F.[Ru+2].c1ccc(-c2cccc(-c3ccccn3)n2)nc1.c1ccc2cc(Nc3cc4ccccc4cn3)ncc2c1 [[3](PF6)2] | 2 | 9.6 | 12.4% | 2.1 ng Ru/mio. cells and 2.14 ± 0.49 ng Ru/mio. cells | ~11.5 | 1.98 ng Ru/mio. cells and 1.98 ± 0.33 ng Ru/mio. cells | 2.92 | 37 µM
